Assay results as given in ChEMBL document CHEMBL1125549, “Computer-aided mapping of the beta-adrenoceptor. 1. Explanation for effect of para substitution on blocking activity at the beta-1-adrenoceptor” (J Med Chem, 1992).

Columns and labels:
[1] = molecular target: T1, Beta-1 adrenergic receptor (Cavia porcellus, UniProt B0FL73); assay: Activity at beta-1 adrenergic receptor; conditions: read-out: pA2 (converted)
[2] = molecular target: T1, Beta-1 adrenergic receptor; assay: Compound was tested for the biological activity at the Beta-1 adrenergic receptor; conditions: read-out: pA2 (converted)

T1 sequence (B0FL73 whole entry): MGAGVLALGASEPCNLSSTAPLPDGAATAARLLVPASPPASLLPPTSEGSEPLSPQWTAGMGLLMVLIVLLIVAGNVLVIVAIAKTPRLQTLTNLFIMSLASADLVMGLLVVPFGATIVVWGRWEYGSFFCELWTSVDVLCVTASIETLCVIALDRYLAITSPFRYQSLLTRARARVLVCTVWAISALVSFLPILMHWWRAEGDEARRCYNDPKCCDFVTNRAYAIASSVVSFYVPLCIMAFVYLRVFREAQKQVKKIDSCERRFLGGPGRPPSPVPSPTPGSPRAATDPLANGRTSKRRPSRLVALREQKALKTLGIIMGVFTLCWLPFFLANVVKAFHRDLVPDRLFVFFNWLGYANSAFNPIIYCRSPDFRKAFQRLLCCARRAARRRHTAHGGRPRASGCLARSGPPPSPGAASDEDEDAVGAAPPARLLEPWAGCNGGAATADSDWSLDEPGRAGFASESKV

SMILES	Kb [1] [nM]	Kb [2] [nM]
CC(C)NCC(O)COc1ccc(-c2nc(-c3cccs3)c[nH]2)cc1 (stereo not given)	1.26	
COCCOc1ccc(OCC(O)CNC(C)C)cc1 (stereo not given)		398
CCc1ccc(OCC(O)CNC(C)C)cc1 (stereo not given)	63.1	
CC(C)NCC(O)COc1ccc(-c2ncc[nH]2)cc1 (stereo not given)	25.1	
CC(C)NCC(O)COc1ccc(OCCOCCc2ccc(F)cc2)cc1 (stereo not given)	6.31	
